“Also recorded” adds a separate entry of the source. Structures can show the parent of a compound that is named as a salt. Where two headings read alike, the source gives them in different places.
How the values were obtained:
[1] = test system: T. b. rhodesiense STIB 900 bloodstream forms; test: In vitro antitrypanosomal Alamar Blue assay; assay type: cell-based, Trypanosoma brucei rhodesiense; conditions: Trypanosoma brucei; 70 h incubation; average of three independent assays; read-out: T. brucei STIB 900 IC50
Method: Evaluation of in vitro antiprotozoal activity against T. b. rhodesiense was done using the Alamar Blue assay to determine IC50s as previously described. Serial threefold dilution were prepared in 96-well micro titre plates, and 4000 T. b. rhodesiense STIB 900 bloodstream forms in 50 μL were added to each well except for the negative controls. Melarsoprol (Arsobal®, purity > 95%, Sanofi-Aventis, Meyrin, Switzerland) was used as reference drugs. […] The IC50 values were calculated from the sigmoidal growth inhibition curves using Softmax Pro software (Molecular Devices).

[2] = test system: rat skeletal myoblasts (L6-cells); test: cells; assay type: cell-based; conditions: Rattus norvegicus, L6; cytotoxicity; 70 h incubation; average of three independent assays; read-out: L6 cells IC50
Method: The cytotoxicity assay was performed with rat skeletal myoblasts (L6-cells) seeded in 100 μL RPMI 1640 in 96-well micro titre plates, using the Alamar Blue assay described above. After 24 h the medium was removed and replaced by 100 μL of fresh RPMI 1640 with serial threefold drug dilution. Podophyllotoxin (purity > 95%, Sigma-Aldrich) was used as a reference drug. After 70 h of incubation under a humidified 5% CO2 atmosphere, 10 μL of the Alamar blue marker (see above) was added to all wells. The plates were incubated for an additional 2 h. A Spectramax Gemini XS micro plate fluorescence reader (Molecular Devices) was used to read the plates using an excitation wavelength of 536 nm and an emission wavelength of 588 nm. The IC50s were calculated from the sigmoidal growth inhibition curves using Softmax Pro software (Molecular Devices).

[3] = test system: T. b. rhodesiense STIB900; test: Acute mouse sleeping sickness model (STIB 900); assay type: in vivo, NMRI mice; conditions: for signs of toxicity in mice: acute mouse model; for survival: po, average of all mice, untreated controls euthanized at day 10 post infection
Method: This model mimics the first stage of the human African trypanosomiasis. Adult female NMRI mice were purchased from Janvier (St. Berthevin, France). They weighed between 20 and 25 g at the beginning of the study and were kept under standard conditions at 22 °C and 60%–70% humidity in macrolon type III cages with food pellets and water ad libitum. […] The samples were first dissolved in 100% DMSO, followed by addition of distilled H2O to a final DMSO concentration of 10%. For determination of the in vivo antitrypanosomal activity, mice were infected intraperitoneally with 1 × 10^4 STIB900 bloodstream forms. Experimental groups of four mice were treated orally once a day on four consecutive days from day 3 to day 6 post infection. A control group of four mice was infected, but remained untreated. The determination of the parasitaemia was done on day 7 post infection. […] Five μL of this mixture were transferred to a glass slide and covered with an 18 × 18 mm cover slide. The sample was examined under a light microscope (200-fold magnification) and parasites were counted in 3 of the 16 squares of the grid.

[4] = test system: T. b. rhodesiense STIB 900 bloodstream forms; set-up: method as in PMID 22331812, PMID 24080104, PMID 21624443, PMID 22396915; conditions: cited from earlier work
[5] = test system: rat skeletal myoblasts (L6-cells); set-up: method as in PMID 22331812, PMID 24080104, PMID 21624443, PMID 22396915; conditions: cytotoxicity; previously reported compounds included for comparison; cited from earlier work
[6] = test system: T. b. rhodesiense STIB900; set-up: method as in PMID 22331812, PMID 24080104; conditions: intraperitoneal, 10 mg/kg/b.i.d. for four consecutive days; cited from earlier work

**Q.** For `C=C(CO)C(=O)OC1CC(=C)C2CC(O)C(=C)C2C2OC(=O)C(CN(C)C)C12` (centres unmarked) [Compound 19, Cynaropicrin dimethylamine adduct hydrochloride], which IC50 [1] is on record?
**A.** The IC50 was 500 ± 3 nM.

**Q.** And the IC50 [2]?
**A.** The IC50 was 5.2 ± 1.3 µM.

**Q.** What about the “signs of toxicity in mice” value ([3]; oral administration) of the same compound?
**A.** The value was “less signs of toxicity”.

**Q.** And the in vivo efficacy ([3]; oral administration, mean survival time versus control)?
**A.** Its in vivo efficacy is “no in vivo efficacy; also recorded: did not show any in vivo efficacy”.

**Q.** And the “survival” value ([3]; 4 × 25 mg/kg)?
**A.** The value was 8.5 days.

**Q.** And the “survival” value ([3]; 4 × 50 mg/kg)?
**A.** The value was 10 days.

**Q.** Which results are given for `C=C(CO)C(=O)O[C@H]1CC(=C)[C@@H]2C[C@H](O)C(=C)[C@@H]2[C@H]2OC(=O)C(=C)[C@@H]21` [Compound 1, Cynaropicrin]?
**A.** signs of toxicity in mice ([3]; oral administration): euthanized on day 10 post infection due to obvious signs of cytotoxicity; parasitemia on day 7 after infection ([3]; oral, 50 mg/kg body weight/day, four mice): reduced parasitemia; survival ([3]; 4 × 50 mg/kg): 9.5 days; SI (Selectivity Index) ([4]; IC50 against L6 cells divided by IC50 against STIB 900 strain, previously reported compounds): 7.8; IC50 ([4]; previously reported compounds included for comparison, compound 9 tested once, read-out: T. brucei STIB 900 IC50): 300 ± 1 nM; IC50 [5]: 2200 ± 300 nM; cure of mice [6]: not able to cure the mice; parasitemia [6]: parasitemia was decreased over several days

— publication PMC6271975, “Structure-Activity Relationship Study of Sesquiterpene Lactones and Their Semi-Synthetic Amino Derivatives as Potential Antitrypanosomal Products” (Molecules, 2014)
